According to article PMC4558462, “A new small molecule inhibitor of soluble guanylate cyclase” (Bioorganic & Medicinal Chemistry, 2015):
Like-named read-outs stand apart in the source and are kept apart here.

Tests used:
[1] = biological target: T1, purified bovine lung sGC (Bos taurus, UniProt P16068+P19687); assay: Soluble guanylate cyclase activity assay (cGMP radioimmunoassay); assay type: biochemical
T1 construct: screened at 100 μM against purified bovine lung sGC; purchased Enzo lifesciences ALX-202-039-C005; host or cells: bovine lung
T1 sequence (P19687 1-691): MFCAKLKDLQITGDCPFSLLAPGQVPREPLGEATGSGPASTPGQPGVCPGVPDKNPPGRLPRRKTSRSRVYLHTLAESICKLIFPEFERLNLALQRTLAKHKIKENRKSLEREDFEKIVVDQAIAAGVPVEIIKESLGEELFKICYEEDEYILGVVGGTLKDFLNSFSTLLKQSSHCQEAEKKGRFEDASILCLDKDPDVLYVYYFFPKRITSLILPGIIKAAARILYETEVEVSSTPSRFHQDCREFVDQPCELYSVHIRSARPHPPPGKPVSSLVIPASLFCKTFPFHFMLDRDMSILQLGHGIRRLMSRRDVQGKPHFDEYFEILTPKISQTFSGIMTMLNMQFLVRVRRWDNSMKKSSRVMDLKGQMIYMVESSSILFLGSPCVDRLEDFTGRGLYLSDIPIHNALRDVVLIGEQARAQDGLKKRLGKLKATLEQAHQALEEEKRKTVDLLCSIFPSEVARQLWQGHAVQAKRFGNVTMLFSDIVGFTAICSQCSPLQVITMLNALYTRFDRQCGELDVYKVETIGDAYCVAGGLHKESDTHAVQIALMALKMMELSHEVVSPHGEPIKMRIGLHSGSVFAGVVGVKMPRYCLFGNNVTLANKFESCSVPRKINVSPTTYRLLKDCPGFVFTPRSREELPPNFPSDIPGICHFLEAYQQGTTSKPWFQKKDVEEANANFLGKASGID
T1 sequence (P16068 1-619): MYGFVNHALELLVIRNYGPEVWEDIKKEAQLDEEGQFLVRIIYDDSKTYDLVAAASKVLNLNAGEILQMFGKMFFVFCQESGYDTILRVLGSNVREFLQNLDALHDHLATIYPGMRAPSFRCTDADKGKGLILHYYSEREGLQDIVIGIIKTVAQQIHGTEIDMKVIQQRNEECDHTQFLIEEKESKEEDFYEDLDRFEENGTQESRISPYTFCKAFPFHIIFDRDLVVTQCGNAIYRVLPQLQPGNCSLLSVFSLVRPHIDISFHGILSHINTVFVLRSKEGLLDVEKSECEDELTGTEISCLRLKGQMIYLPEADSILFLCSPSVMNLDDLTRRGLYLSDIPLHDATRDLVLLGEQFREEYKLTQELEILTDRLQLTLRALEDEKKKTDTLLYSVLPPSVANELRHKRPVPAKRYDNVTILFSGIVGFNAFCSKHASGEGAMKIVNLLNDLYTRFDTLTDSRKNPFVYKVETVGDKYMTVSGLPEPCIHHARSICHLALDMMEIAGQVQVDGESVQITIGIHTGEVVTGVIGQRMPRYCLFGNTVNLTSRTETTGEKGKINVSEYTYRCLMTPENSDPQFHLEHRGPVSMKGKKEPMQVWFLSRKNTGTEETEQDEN
Description: Virtual screening was performed by similarity searches using MACCS fingerprints at 85% and 75% Tanimoto of commercial libraries and the selected compounds were screened at 100 μM against purified bovine lung sGC using diethylamine NONOate (30 nM) as the NO donor. Enzyme activity was determined by measuring cGMP production using a standard cGMP [^3H] radioimmunoassay.[21,22]
[…] Compounds were added at 100 μM prior to adding the NO donor DEA/NO (30 nM) or clamped NO concentrations. cGMP generation was allowed to proceed for two minutes, after which aliquots were withdrawn and inactivated by boiling in 50 mM Tris, 4 mM EDTA buffer. cGMP formation was measured by a standard radioimmunoassay.

[2] = tested on: adenylyl cyclase; assay: Adenylyl cyclase activity (data not shown); assay type: biochemical
Excerpt: The sGC heterodimer is composed of a α-subunit and a shorter β-subunit which presents in the N-terminal the prosthetic haem group bound to histidine-105.[27] Each subunit is composed of a haem-nitric oxide binding domain, a PAS-like domain, a coiled-coil bundle, and the C-terminal catalytic domain where turnover of GTP into cGMP occurs.[28] […] The two sites are different, and small molecules can bind to one or to both sites, thus showing a 1:1 or 1:2 binding ratio. We have previously shown by surface plasmon resonance (SPR) that ATP binds to both sites and may inhibit sGC activity via competition with GTP, highlighting the potential for allosteric regulation of the enzyme.[24] GC domains are also present in the membrane-bound natriuretic peptide receptors type-A and type-B. There receptors, also referred to as particulate GCs (pGCs), are activated by binding of natriuretic peptides to the extracellular domain of the receptors, leading to an increase in GTP turnover at the intracellular GC domain.[32–34] In this study we observed by SPR that compound 10 bound to the catalytic domain of sGC in a 1:1 ratio. […] However, activity against kinases or phosphodiesterases was not investigated.

O=[N+]([O-])c1ccc2nc(Nc3ccc(O)cc3)c(Nc3ccc(O)cc3)nc2c1 [Compound 10, 4,4′-((6-Nitroquinoxaline-2,3-diyl)bis(azanediyl))diphenol]
Hill slope ([1]; GC activator cinaciguat 20 nM): 4
IC50 ([1]; GC activator cinaciguat 20 nM, no NO, read-out: IC50 (μM) ± SE): 25 ± 4 µM
Hill slope ([1]; GC activator cinaciguat 1 μM): 4
IC50 ([1]; GC activator cinaciguat 1 μM, no NO, read-out: IC50 (μM) ± SE): 37 ± 40 µM
IC50 ([1]; NO 0.3 nM, GTP 50 μM, read-out: IC50, NO-stimulated cGMP production by isolated sGC): 21 ± 3 µM
IC50 ([1]; NO 0.3 nM, GTP 200 μM, read-out: IC50, NO-stimulated cGMP production by isolated sGC): 33 ± 4 µM
IC50 ([1]; NO 0.3 nM, GTP 1000 μM, read-out: IC50, NO-stimulated cGMP production by isolated sGC): 33 ± 9 µM
IC50 ([1]; NO 10 nM, GTP 50 μM, read-out: IC50, NO-stimulated cGMP production by isolated sGC): 19 ± 2 µM
IC50 ([1]; NO 10 nM, GTP 200 μM, read-out: IC50, NO-stimulated cGMP production by isolated sGC): 19 ± 1 µM
IC50 ([1]; NO 10 nM, GTP 1000 μM, read-out: IC50, NO-stimulated cGMP production by isolated sGC): 34 ± 2 µM
inhibition of cGMP production after enzyme activation with cinaciguat (in words) ([1]; cinaciguat-activated, no NO): capable of inhibiting cGMP production
inhibition at 100 µM ([1]; read-out: % inhibition of sGC activity at 100 μM compound): 99%
inhibition at 100 µM ([1]; read-out: sGC activity% inhibition at 100 μM): 56.2 ± 22.4%
activity on adenylyl cyclase ([2]; basal): no activity
activity on adenylyl cyclase ([2]; forskolin-stimulated): no activity
